{"source": "patent US9868735B2", "about": "“Benzazepine ketone compounds as glycogen phosphorylase inhibitor, preparation method therefor, and medical uses” (CHENGDE MEDICAL UNIVERSITY, priority 2013, dated 2018)", "target": "T1, rabbit muscle glycogen phosphorylase (GPa) (Oryctolagus cuniculus, UniProt P00489)", "T1 sequence (P00489 2-843 limits assumed)": "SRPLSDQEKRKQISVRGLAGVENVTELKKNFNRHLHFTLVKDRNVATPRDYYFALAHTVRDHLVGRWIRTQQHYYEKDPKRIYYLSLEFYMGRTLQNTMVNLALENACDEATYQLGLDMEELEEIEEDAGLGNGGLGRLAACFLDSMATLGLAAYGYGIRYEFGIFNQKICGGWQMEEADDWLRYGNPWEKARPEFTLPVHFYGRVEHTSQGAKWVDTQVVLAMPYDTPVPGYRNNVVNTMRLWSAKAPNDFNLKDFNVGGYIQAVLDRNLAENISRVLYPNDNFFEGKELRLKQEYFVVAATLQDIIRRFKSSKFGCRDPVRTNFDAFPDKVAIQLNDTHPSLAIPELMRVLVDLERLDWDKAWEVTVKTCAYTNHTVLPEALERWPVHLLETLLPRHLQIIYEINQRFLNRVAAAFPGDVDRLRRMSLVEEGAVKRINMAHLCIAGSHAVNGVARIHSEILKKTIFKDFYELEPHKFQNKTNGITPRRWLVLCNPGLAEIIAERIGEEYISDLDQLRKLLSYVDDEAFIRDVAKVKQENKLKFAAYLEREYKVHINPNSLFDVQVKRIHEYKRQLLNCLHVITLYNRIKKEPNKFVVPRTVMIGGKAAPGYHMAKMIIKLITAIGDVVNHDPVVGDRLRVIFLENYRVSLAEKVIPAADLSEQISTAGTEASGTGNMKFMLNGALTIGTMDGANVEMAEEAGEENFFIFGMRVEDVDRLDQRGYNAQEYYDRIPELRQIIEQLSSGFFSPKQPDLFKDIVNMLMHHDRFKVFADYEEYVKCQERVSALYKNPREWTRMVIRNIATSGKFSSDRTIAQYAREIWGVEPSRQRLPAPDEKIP", "test": "Glycogen phosphorylase in vitro inhibitory activity assay", "type": "biochemical", "details": "GPa 250 ng/100 μl, 30° C. 20 minutes, colorimetry at 655 nm", "protocol": "Glycogen Phosphorylase In Vitro Inhibitory Activity Assay\nPreparation of reagents: 1) preparation of color developing solution: 5 g of ammonium molybdate was weighed, dissolved in 500 ml of 1M HCl and stirred with a stirrer until completely dissolved. Then the mixture was added with 190 mg of malachite green with stirring until completely dissolved. The solution prepared was wrapped with an aluminum foil to protect it from exposure to light; 2) preparation of buffer: {circumflex over (1)} 0.5958 g of Hepes was precisely weighed and dissolved in 5 ml H2O. […]\nDetermination of dose-response curve of rabbit muscle glycogen phosphorylase activity: a dose-response curve was determined by reading OD values of various concentrations of GPa solutions at 655 nm after added with a color developing solution. The amount of GPa can be 250 ng as determined from the dose-response curve.\nExperimental procedure: 1) designing PC (positive control), Blank (blank control), positive drug (caffeine); 2) adding 52 μl of reaction buffer; 3) adding the test compound to a final concentration; 4) adding 1 μl of enzyme to a final concentration of 250 ng/100 μl; 5) adding 150 μl of the color developing solution; 6) reacting at 30° C. for 20 minutes; 7) colorimetry determination at a wavelength of 655 nm; 8) reading data and calculating inhibitory activity: Inhibitory Activity=(PC−test sample)/(PC−Blank)"}
{"smiles": "O=C(Nc1ccc2c(c1)C(=O)NCCO2)c1cc2cc(Cl)ccc2[nH]1", "note": "[Example 1, 7-(5-Chloro-1H-indole-2-carboxamido)-3,4-dihydrobenzo[f][1,4]oxazepin-5(2H)-one]", "values": [{"measurement": "IC50", "result": "< 0.1", "unit": "µM"}]}
